The results in this text go back to US20260097047A1, “Small molecule inhibitors of the ribosome biogenesis factor NVL2” (Board of Regents, The University of Texas System, priority 2023, published 2026).

Where two headings read alike, the source gives them in different places.

The test relates to HCT116 cells. The test can be described thus: Cell viability assay (CellTiter-Glo, 72 hours) in HCT116 human colorectal cancer cells. It counts as cell-based. Here is the method:
Cell culture: The HCT116 cell line was obtained from ATCC and cultured in Dulbecco's Modified Eagle's Medium (DMEM)-high glucose (Sigma Aldrich #D5796) supplemented with 10% fetal bovine serum (FBS) (Sigma-Aldrich #F2442) and 2 mM L-Glutamine (Sigma Aldrich #G7513). Cells were cultured at 37° C. in 5% CO2. The identity of all cell lines was confirmed by short tandem repeat (STR) analysis and confirmed to be mycoplasma-free using a PCR based assay (Genatlantis).
Cell viability assay: In 96-well assay plates (Corning #2903), 2,000 cells were plated per well in 100 μL of medium and allowed to adhere overnight. The next day, compounds suspended in DMSO were dispensed to the assayed wells using a D300e Digital Dispenser (Tecan). All wells were normalized to 0.5% DMSO. 72 hours after incubation at 37° C. in 5% CO2, cell viability was assayed using an ATP-based luminescent viability assay, CellTiter-Glo (Promega #G8462). Substrate was mixed 1:1 with phosphate-buffered saline (PBS) supplemented with 1% Triton X-100, and 40 μL of this mixture was added to the assay wells. Plates were shaken on a microplate shaker for 10 minutes at room temperature. Luminescence (CellTiter-Glo) was recorded using a Synergy 2 microplate reader (BioTek). In Prism 9 software (GraphPad), ten-point dose response curves were plotted with baseline-correction to the vehicle control well, and IC50 values were calculated by curve fitting using asymmetric (five parameter), least squares fit.
A general note: Cellular ATP, detected with luciferase, serves as a proxy for viable cell number.

[1] abbreviates: Table 8, analogs of scaffold drawing 43 defined by R^2, R^3, X/Y, W, read-out: Activity (IC50 class, cell viability assay).
Where [2] appears, read: Table 6, HCT116, 72 hours, read-out: Activity.
Where [3] appears, read: Table 9, HCT116, 72 hours, read-out: Activity.
Where [4] appears, read: Homo sapiens, HCT-116, Table 5, HCT116, 72 hours, read-out: Activity.
The mark [5] stands for this setting: Table 5, HCT116, 72 hours, read-out: Activity.
The mark [6] stands for this setting: Table 3, HCT116, 72 hours, read-out: Activity.
Setting [7] is: Table 7, cell viability assay, CellTiter-Glo, 72 hours, scaffold drawing 42 with R^2, R^3, X/Y, Z, read-out: Activity.
Setting [8] is: Table 4, HCT116, 72 hours, read-out: Activity.

Regarding `CO[C@H]1C[C@@H](C(=O)Nc2ccc3c(c2)Sc2ccc(F)cc2C(=O)N3CC#CCl)C1` [—CH2CCCl; cis-3-MeOcBu; CH/CF; CH], the IC50 under setting [1] is less than 0.5 µM.

For the compound `CC#CCN1C(=O)c2cc(F)ccc2Sc2cc(NC(=O)C=CCOC)ccc21` [—CH2CCMe; CH—═CHCH2OMe; CH/CF; CH], the IC50 under setting [1] was less than 0.5 µM.

Take `CON=C1CC2(C1)CC(C(=O)Nc1cnc3c(c1)Sc1cc(Cl)ccc1C(=O)N3CC#CCl)C2` (stereo not drawn): the IC50 under setting [1] was less than 0.5 µM.

Consider `COCC1CC(Nc2ccc3c(c2)Sc2ccccc2C(=O)N3CC#CCl)C1` (stereo not drawn), for which the IC50 under setting [2] was less than 0.5 µM.

On to `CC#CCN1C(=O)c2ccccc2C(C)c2cc(NC(=O)C34CC(OC)(C3)C4)ccc21` (stereo not drawn), for which, under setting [3], the IC50 is less than 0.5 µM.

In the case of `CC#CCN1C(=O)c2ccc(F)cc2Sc2cc(Nc3ncccc3OC)ccc21` [10-(But-2-yn-1-yl)-3-fluoro-7-((3-methoxypyridin-2-yl)amino)dibenzo[b,f][1,4]thiazepin-11 (10H)-one], the IC50 under setting [4] is less than 0.5 µM.

With `CC#CCN1C(=O)c2ccccc2Sc2cc(NC(=O)C3CCCO3)ccc21` (stereo not drawn), under setting [1], the IC50 was less than 0.5 µM.

As to `Cc1cnc(Nc2cnc3c(c2)Sc2ccccc2C(=O)N3CC#CCl)c(C)n1`, the IC50 under setting [5] is less than 0.5 µM.

For `CC#CCN1C(=O)c2ccccc2Sc2cc(NC(=O)CCC#N)ccc21` [—CH2CCMe; (CH2)2CN; CH/CH; CH], under setting [1], the IC50 is less than 0.5 µM.

Take `CC#CCN1C(=O)c2ccccc2C(C)(O)c2cc(NC(=O)[C@H]3C[C@@H](OC)C3)ccc21` (stereo partly drawn) [Table 9: —CH2CCMe; cis-3-MeOcBu; CMeOH]: under setting [3], the IC50 is less than 0.5 µM.

For the compound `C#CCN1C(=O)c2ccccc2Sc2cc(NC(=O)C3CC4(CC(=NOC)C4)C3)cnc21` (stereo not drawn), the IC50 under setting [1] was less than 0.5 µM.

For `CC#CCN1C(=O)c2ccc(F)cc2Sc2cc(NC(=O)C3CCCO3)cnc21` (stereo not drawn) [—CH2CCMe; tetrahydrofuran-2-yl; CF/CH; N], the IC50 under setting [1] is less than 0.5 µM.

Regarding `CC=CCN1C(=O)c2ccccc2Sc2cc(Nc3ncccc3C#N)ccc21`, the IC50 under setting [5] is less than 0.5 µM.

`CC#CCN1C(=O)c2ccccc2C(C)(O)c2cc(NC(=O)C3CC4(CC(=NO)C4)C3)ccc21` (stereo not drawn): the IC50 under setting [3] was less than 0.5 µM.

`COC1CC(C(=O)Nc2ccc3c(c2)C(C#N)c2ccccc2C(=O)N3CC#CC2CC2)C1` (stereo not drawn) [Table 9: —CH2CC°Pr; trans-3-MeOcBu; CHCN]: the IC50 under setting [3] is less than 0.5 µM.

With `O=C(Nc1ccc2c(c1)Sc1ccc(F)cc1C(=O)N2CC#CC1CC1)C1CC2(COC2)C1`, under setting [1], the IC50 was less than 0.5 µM.

As to `CC#CCN1C(=O)c2ccccc2Sc2cc(NC(=O)C34CC(F)(C3)C4)ccc21`, the IC50 under setting [1] was less than 0.5 µM.

In the case of `CC#CCN1C(=O)c2ccccc2Sc2cc(NC(=O)Nc3ccc(OC)cc3)cnc21` [Table 3: —CH2CCMe; 4-MeOPh; CH/N], the IC50 under setting [6] is less than 0.5 µM.

`COCCN1C(=O)c2ccccc2Sc2cc(NC(=O)c3ccc(OC)cc3)ccc21` [—(CH2)2OMe; 4-MeOPh; CH/CH; S]: the IC50 under setting [7] was less than 0.5 µM.

In the case of `CC#CCN1C(=O)c2ccccc2Sc2cc(Nc3nnccc3C)ccc21` [10-(But-2-yn-1-yl)-7-((4-methylpyridazin-3-yl)amino)dibenzo[b,f][1,4]thiazepin-11 (10H)-one], the IC50 under setting [4] was less than 0.5 µM.

For `CC#CCN1C(=O)c2ccccc2Sc2cc(NC3CC4(COC4)C3)cnc21`, under setting [2], the IC50 is less than 0.5 µM.

As for `C#CCN1C(=O)c2ccccc2Sc2cc(NC3CC(O)C3)cnc21` (stereo not drawn) [Table 6: —CH2CCH; 3-HOcBu; CH/N; S], under setting [2], the IC50 was less than 0.5 µM.

Regarding `CC#CCN1C(=O)c2ccccc2Sc2cc(NC(=O)C=CCOC)ccc21` [—CH2CCMe; CH═CHCH2OMe; CH/CH; CH], the IC50 under setting [1] is less than 0.5 µM.

As for `C#CCOCCN1C(=O)c2ccccc2Sc2cc(NC(=O)c3ccc4scnc4c3)ccc21`, the IC50 under setting [7] is less than 0.5 µM.

For the compound `CC#CCN1C(=O)c2ccccc2Cc2cc(NC(=O)[C@H]3C[C@@H](OC)C3)ccc21` [Table 9: —CH2CCMe; cis-3-MeOcBu; CH2], under setting [3], the IC50 is less than 0.5 µM.

On to `C#CCN1C(=O)c2ccccc2Sc2cc(NC3CC4(COC4)C3)cnc21`, for which the IC50 under setting [2] is less than 0.5 µM.

On to `CC#CCN1C(=O)c2cc(F)ccc2Sc2cc(NC(=O)C=CCO)ccc21` [—CH2CCMe; CH═CHCH2OH; CH/CF; CH], for which the IC50 under setting [1] was less than 0.5 µM.

On to `O=C1c2ccccc2Sc2cc(NC(=O)C34CC(F)(C3)C4)cnc2N1CC#CC1CC1`, for which the IC50 under setting [1] is less than 0.5 µM.

Consider `CC#CCN1C(=O)c2cc(F)ccc2Sc2cc(NC(=O)CCCO)ccc21` [—CH2CCMe; (CH2)3OH; CH/CF; CH], for which, under setting [1], the IC50 was less than 0.5 µM.

Regarding `CC#CCN1C(=O)c2ccccc2Sc2cc(NC(=O)Nc3ccc(OC)cc3)ccc21` [Table 3: —CH2CCMe; 4-MeOPh; CH/CH], the IC50 under setting [6] was less than 0.5 µM.

`CC#CCN1C(=O)c2ccccc2Sc2cc(NC(=O)Nc3cccc(OC)c3)ccc21` [Table 3: —CH2CCMe; 3-MeOPh; CH/CH]: the IC50 under setting [6] is less than 0.5 µM.

Regarding `CC#CCN1C(=O)c2ccc(Cl)cc2Sc2cc(NC(=O)CCCO)ccc21` [—CH2CCMe; (CH2)3OH; CCl/CH; CH], under setting [1], the IC50 is less than 0.5 µM.

Regarding `CC#CCN1C(=O)c2ccc(Cl)cc2Sc2cc(NC(=O)C3CC4(COC4)C3)ccc21`, the IC50 under setting [1] is less than 0.5 µM.

Consider `CC#CCN1C(=O)c2ccccc2Sc2cc(NC(=O)C=CCOC)cnc21` [—CH2CCMe; CH—CHCH2OMe; CH/CH; N], for which the IC50 under setting [1] is less than 0.5 µM.

Consider `CC#CCN1C(=O)c2ccccc2Sc2cc(Nc3nnccc3C)cnc21`, for which, under setting [5], the IC50 is less than 0.5 µM.

Take `O=C(CC1COC1)Nc1ccc2c(c1)Sc1ccc(F)cc1C(=O)N2CC#CC1CC1` [—CH2CC^cPr; (oxetan-3-yl)CH2; CH/CF; CH]: the IC50 under setting [1] is less than 0.5 µM.

Regarding `CC#CCN1C(=O)c2ccccc2Sc2cc(NC(=O)C3CCOC3)cnc21` (stereo not drawn) [—CH2CCMe; tetrahydrofuran-3-yl; CH/CH; N], the IC50 under setting [1] is less than 0.5 µM.

`CC#CCN1C(=O)c2ccccc2Sc2cc(NC(=O)c3ccc(OCF)cc3)ccc21` [—CH2CCMe; 4-FH2COPh; CH/CH; CH]: the IC50 under setting [1] is less than 0.5 µM.

With `COCCN1C(=O)c2ccccc2Sc2cc(NC(=O)C3CCC3)ccc21` [—(CH2)2OMe; cBu; CH/CH; S], the IC50 under setting [7] fell in the range of 0.5 to 1 µM.

Turning to `O=C(Nc1cnc2c(c1)Sc1ccccc1C(=O)N2CC#CC1CC1)C1CC2(CC(O)C2)C1` (stereo not drawn), the IC50 under setting [1] is less than 0.5 µM.

Turning to `CC#CCN1C(=O)c2ccc(Cl)cc2Sc2cc(NC(=O)C=CCOC)cnc21` [—CH2CCMe; CH—═CHCH2OMe; CCl/CH; N], the IC50 under setting [1] is less than 0.5 µM.

For the compound `CC#CCN1C(=O)c2ccc(F)cc2Sc2cc(NC(=O)[C@@H]3C[C@H]3COC)cnc21` (relative stereo) [—CH2CCMe; trans-2-MeOCH2-cPr; CF/CH; N], the IC50 under setting [1] was less than 0.5 µM.

Take `CC#CCN1C(=O)c2ccccc2C(C#N)c2cc(NC(=O)[C@H]3C[C@H](OC)C3)ccc21` (stereo partly drawn) [Table 9: —CH2CCMe; trans-3-MeOcBu; CHCN]: the IC50 under setting [3] was less than 0.5 µM.

Turning to `CC#CCN1C(=O)c2ccccc2Sc2cc(NC3CC(CO)C3)cnc21` (stereo not drawn) [Table 6: —CH2CCMe; 3-HOCH2-cBu; CH/N; S], under setting [2], the IC50 is less than 0.5 µM.

In the case of `CC#CCN1C(=O)c2ccccc2Sc2cc(NC(=S)Nc3ccc4scnc4c3)cnc21`, under setting [8], the IC50 was less than 0.5 µM.

Consider `CC#CCN1C(=O)c2ccccc2Cc2cc(NC3CCCOC3)ccc21` (stereo not drawn), for which the IC50 under setting [2] was less than 0.5 µM.

In the case of `COCC1CC(C(=O)Nc2ccc3c(c2)Cc2ccccc2C(=O)N3CC#CC2CC2)C1` (stereo not drawn) [Table 9: —CH2CCCPr; 3-MeOCH2-cBu; CH2], the IC50 under setting [3] was less than 0.5 µM.

As to `CC#CCN1C(=O)c2ccccc2Sc2cc(Nc3cncnc3)ccc21` [10-(But-2-yn-1-yl)-7-(pyrimidin-5-ylamino)dibenzo[b,f][1,4]thiazepin-11 (10H)-one], the IC50 under setting [4] was less than 0.5 µM.

Turning to `CC#CCN1C(=O)c2ccccc2Sc2cc(NC(=O)C34CC(OC)(C3)C4)cnc21`, the IC50 under setting [1] is less than 0.5 µM.

Regarding `C#CCN1C(=O)c2cc(F)ccc2Sc2cc(NC(=O)[C@H]3C[C@H](OC)C3)ccc21` [—CH2CCH; trans-3-MeOcBu; CH/CF; CH], the IC50 under setting [1] is less than 0.5 µM.

`CC#CCN1C(=O)c2ccccc2Sc2cc(NC(=O)c3ccc(OC)cc3)ccc21` [—CH2CCMe; 4-MeOPh; CH/CH; CH]: the IC50 under setting [1] is less than 0.5 µM.

In the case of `C#CCN1C(=O)c2ccccc2Sc2cc(Nc3ncc(C)cc3C)cnc21`, the IC50 under setting [5] was less than 0.5 µM.

Consider `CC#CCN1C(=O)c2ccc(Cl)cc2Sc2cc(NC(=O)[C@@H]3C[C@H]3CO)ccc21` (relative stereo) [—CH2CCMe; trans-2-HOCH2-cPr; CCl/CH; CH], for which the IC50 under setting [1] was less than 0.5 µM.

`CC#CCN1C(=O)c2ccccc2Sc2cc(NC(=S)Nc3ccc4scnc4c3)ccc21`: the IC50 under setting [8] was less than 0.5 µM.

With `COC12CC(C(=O)Nc3ccc4c(c3)C(C#N)c3ccccc3C(=O)N4CC#CC3CC3)(C1)C2` (stereo not drawn), under setting [3], the IC50 is less than 0.5 µM.

Turning to `COCCN1C(=O)c2ccccc2Sc2cc(NC(=O)c3ccc(C)cc3)ccc21` [—(CH2)2OMe; 4-MePh; CH/CH; S], the IC50 under setting [7] is 1 to 5 µM.

In the case of `CC#CCN1C(=O)c2ccccc2Sc2cc(Nc3ncnc(C#N)c3C)ccc21` [6-((10-(But-2-yn-1-yl)-11-oxo-10,11-dihydrodibenzo[b,f][1,4]thiazepin-7-yl)amino)-5-methylpyrimidine-4-carbonitrile], the IC50 under setting [4] was less than 0.5 µM.
